Data: US6361595B1, “Process for the preparation of pigment compositions” (Ciba Specialty Chemicals Corporation, priority 1999, dated 2002)

What was measured:
Assay type in all cases: cell-based, bacteria
[1] = test system: mixed culture of Gram-positive cocci, Gram-negative cocci, Gram-positive rods and Gram-negative rods; test: Microbial contamination of dried Pigment Yellow 13 powder (Example 5 procedure) after mixing filter cake with bacterial culture; conditions: PY13, no DBS
Method: (§1) Susceptibility to microbial contamination is assessed according to the following procedure:
(§2) Microbial contamination is assessed using individual bacteria of the morphological types, Gram-positive cocci, Gram-negative cocci, Gram-positive rods and Gram-negative rods which are maintained on Nutrient Agar slopes. When required, each is cultured in Nutrient broth at 30° C. until an organism count of >10^8 colony-forming units (cfu) per milliliter (ml) is reached. The individual cultures are then mixed in equal proportions to provide a mixed culture which is then used immediately.
(§3) 10 mg of the sieved powder and one drop of sterile water are evenly spread on a Nutrient Agar plate with a glass spreader under aseptic conditions and the plate incubated at 30° C. for 48 hours, The number of bacterial colonies evident on each plate are then counted and expressed as the number of colony-forming units per gram (cfu/g).
A solution of 8.9 parts of acetic acid (100%) and 15 parts hydrochloric acid (36%) in 100 parts water are added to a solution of 63 parts of acetoacet-m-xylidide dissolved in a solution of 25.2 parts of sodium hydroxide (50%) in 676 parts of water at a temperature of 20° C. The resultant slurry is reacted with 36.9 parts of a previously tetrazotised solution of 3,3′-dichlorobenzidine, with simultaneous addition of sodium hydroxide solution (10%) to maintain pH 4.5-5.5. […] The product is then filtered and washed with water under vacuum to remove soluble salts. The filter cake (still under vacuum suction) is mixed with a bacterial culture (10 ml of culture diluted to 100 ml with water) and vacuum suction is maintained until no further liquid emanates from the filter cake. The filter cake, without further washing, is then dried and converted to a powder by grinding. The powder is then passed through a 150 micron sieve.

[2] = test system: mixed culture of Gram-positive cocci, Gram-negative cocci, Gram-positive rods and Gram-negative rods; test: Microbial contamination of dried Pigment Yellow 74 powder (Example 1 procedure) after mixing filter cake with bacterial culture
[3] = test system: mixed culture of Gram-positive cocci, Gram-negative cocci, Gram-positive rods and Gram-negative rods; test: as above; remark: listed apart in the source
Method: as §1, §2
(§4) 23.3 parts of acetic acid (80%) are added to a solution of 55 parts of acetoacet-o-anisidide dissolved in a solution of 25.5 parts of sodium hydroxide (47%) in 450 parts of water at a temperature of 0° C. The resultant slurry is reacted with 42.5 parts of p-nitro-o-anisidine previously diazotised with 45.4 parts of sodium nitrite (37%) and 56 parts of hydrochloric acid (36%) in the usual manner with simultaneous addition of sodium hydroxide solution (10%) to maintain pH 5.5-6.0. To the coupled slurry are then added 3 parts of dibutyl sebacate and 1 part of dimethylbenzyl-C12-14alkylammonium chloride (100% active) and the mixture is heated to a temperature of 100° C. and maintained at this temperature for one hour. The product is then filtered and washed with water under vacuum to remove soluble salts. The filter cake(still under vacuum suction) is mixed with a bacterial culture (10 ml of culture diluted to 100 ml with water)and vacuum suction is maintained until no further liquid emanates from the filter cake. The filter cake, without further washing, is then dried and converted to a powder by grinding. The powder is then passed through a 150 micron sieve.
The procedure described in Example 1 is repeated, but varying the type of biocide and amount of biocide used. The procedure for determining the extent of microbial contamination is as follows:
as §3

[4] = test system: mixed culture of Gram-positive cocci, Gram-negative cocci, Gram-positive rods and Gram-negative rods; test: Microbial contamination of dried Pigment Yellow 65 powder (Example 2 procedure) after mixing filter cake with bacterial culture
Method: as §1, §2, §3
as §4, with “(100%)” for “(80%)”, “o-nitro-p-anisidine” for “p-nitro-o-anisidine”, “cake (still” for “cake(still”, “water) and” for “water)and”
The procedure described in Example 2 is repeated, but varying the type of biocide and amount of biocide used.
The procedure described in Example 2 is repeated, but varying the type of biocide and amount of biocide used and omitting the DBS.

For “Benzyldimethyl-C12-14-alkylammonium chloride [KLC]”, the “microbial contamination, colony-forming units per gram” value (“microbial contamination … per gram” below) ([1]; 0.5 parts biocide) was >10^4 cfu/g, the “microbial contamination … per gram” value ([1]; 1.0 parts biocide) was >10^4 cfu/g and the “microbial contamination … per gram” value ([1]; 3.0 parts biocide) was 0 cfu/g. For the same substance, the “microbial contamination … per gram” value ([1]; 5.0 parts biocide) was 0 cfu/g, the “microbial contamination … per gram” value ([2]; PY74, 0 parts DBS + 1 part KLC) was 0 cfu/g and the “microbial contamination … per gram” value ([2]; PY74, 1 parts DBS + 1 part KLC) was 0 cfu/g. The “microbial contamination … per gram” value ([2]; PY74, 2 parts DBS + 1 part KLC) was 0 cfu/g, the “microbial contamination … per gram” value ([3]; PY74, 3 parts DBS + 1 part KLC) was 0 cfu/g and the “microbial contamination … per gram” value ([3]; PY74, 3 parts dibutyl sebacate, 0.1 parts biocide, plate 30° C. 48 hours) was >10^4 cfu/g. For the same substance, the “microbial contamination … per gram” value ([3]; PY74, 3 parts dibutyl sebacate, 0.5 parts biocide, plate 30° C. 48 hours) was 0 cfu/g, the “microbial contamination … per gram” value ([3]; PY74, 3 parts dibutyl sebacate, 1.0 parts biocide, plate 30° C. 48 hours) was 0 cfu/g and the “microbial contamination … per gram” value ([3]; PY74, 3 parts dibutyl sebacate, 3.0 parts biocide, plate 30° C. 48 hours) was 0 cfu/g. For the same substance, the “microbial contamination … per gram” value ([3]; PY74, 3 parts dibutyl sebacate, 5.0 parts biocide, plate 30° C. 48 hours) was 0 cfu/g, the “microbial contamination … per gram” value ([4]; PY65, omitting the DBS, 0.5 parts biocide) was 1.3 × 10^4 cfu/g and the “microbial contamination … per gram” value ([4]; PY65, omitting the DBS, 1.0 parts biocide) was 0 cfu/g. For the same substance, the “microbial contamination … per gram” value ([4]; PY65, omitting the DBS, 3.0 parts biocide) was 0 cfu/g, the “microbial contamination … per gram” value ([4]; PY65, omitting the DBS, 5.0 parts biocide) was 0 cfu/g and the “microbial contamination … per gram” value ([4]; PY65, with 3 parts dibutyl sebacate, 0.5 parts biocide) was 2.7 × 10^3 cfu/g. The “microbial contamination … per gram” value ([4]; PY65, with 3 parts dibutyl sebacate, 1.0 parts biocide) was 0 cfu/g, the “microbial contamination … per gram” value ([4]; PY65, with 3 parts dibutyl sebacate, 3.0 parts biocide) was 0 cfu/g and the “microbial contamination … per gram” value ([4]; PY65, with 3 parts dibutyl sebacate, 5.0 parts biocide) was 0 cfu/g.
